Assay results published in PMC7261172, “Peptides containing the PCNA interacting motif APIM bind to the β-clamp and inhibit bacterial growth and mutagenesis” (Nucleic Acids Research, 2020).
Values after ≈ are worked out from the molar mass of the structure shown. Like-named read-outs stand apart in the source and are kept apart here.

Experiments:
S.aureus ATCC 29213 = test: microbe, parasite or virus in culture; format: cell-based, Staphylococcus aureus
Protocol: (§1) Briefly, bacterial suspension in Mueller-Hinton Broth was adjusted to 0.5 McFarland and diluted to 5 × 10^5 CFU/ml. The suspension (0.1 ml) was seeded in polypropylene microtiter plates (Greiner), 5 × 10^4 CFU/well. APIM-peptides were added as 10% of the total volume. Initial inoculums were quantified by seeding on agar for verification of the estimated CFU/mL. After 24 hours (h) incubation at 37°C, the microtiter plates were inspected for visible growth.
(§2) Determination of minimal inhibitory concentrations (MICs) for S. aureus was done at Statens Serum Institute, Copenhagen, Denmark.

S.aureus FDA486 = test: microbe, parasite or virus in culture; format: cell-based, Staphylococcus aureus
Protocol: as §1, §2

E. coli BL21 [1] = test: Overexpression (viability) assay; format: cell-based, Escherichia coli; details: IPTG 1 mM; 2 and 8 h after induction; peptide without cell penetrating part (MD-APIM-GILQSTLA); Figure 1D, Suppl. S1A
Protocol: A stop codon is found in the multiple cloning site after the NcoI/NheI site. The sequence over-expressed is MD-APIM-[…].
Induction was performed using isopropyl β-D-1-thiogalactopyranoside (IPTG) (1 mM) at OD600 = 0.3 - 0.4. Bacterial growth was measured by OD600 or the number of colony-forming units (CFU) per ml.

E. coli BL21 [2] = test: Rif^R mutagenicity assay, overexpressed peptides; format: cell-based, Escherichia coli
Protocol: (§3) The rifampicin resistance (Rif^R) mutagenicity assay was performed as described in ([50]) with some modifications. Briefly, E. coli BL21 expressing peptide variants were induced with (IPTG) (1 mM) at OD600 = 0.3–0.4 and cultured at 37°C, for 2 h before harvested. Bacteria from large culture volumes (up to 50 ml) were plated in order to obtain ∼100 Rif^R colonies per dish. The anti-mutagenic effect of cell penetrating APIM-peptides in E. coli MG1655 was done by adding 20 μM peptide at OD600 = 0.01, and the cells were cultured for 30 min. Next, the cells were pelleted and washed with PBS before UV-irradiated in (50 μl) PBS (2 mJ UVC/cm^2), re-suspended in 2.5 ml LB and cultured in 37°C for 2 h before plating on LB plates with and without Rif (100 μg/ml). The number of Rif^R colonies/ total CFU was determined after 1 and 2 days, respectively. Significance was calculated by using a two-tailed, paired, students t-test. Gentamicin resistance (Gen^R) was examined using a gentamicin sensitive clinical isolate of S. epidermidis. […] The cultures were grown in a shaking incubator (37°C) and were re-inoculated (1:100) every 24 h in fresh TSB and supplements. The cultures were plated on blood agar plates with and without gentamicin (10 mg/l) every day for 4 days, and the frequency of Gen^R colonies was determined by calculating the number of Gen^R colonies/total CFU.

WT β-clamp = test: SPR analysis, immobilized WT β-clamp; format: binding, Escherichia coli; details: 4-128 μM peptide, single-cycle mode, 25°C, PBS P+ pH 7.4; Figure 2A
Protocol: (§4) The experiment was performed with Biacore S200 (GE Healthcare), at 25°C with a flowrate of 30 μl/min. Purified WT and mutant β-clamp protein were immobilized by amine coupling on CM5 Series S sensor chips (GE Healthcare).
(§5) Octamer peptides containing APIM motifs (underlined) [sequence] and [sequence] were diluted in running buffer (PBS P+ buffer: 20 mM phosphate buffer pH 7.4, 3 mM KCl, 137 mM NaCl, 0.05% surfactant P20) at 4, 8, 16, 32, 64 and 128 μM, and analyzed by single-cycle mode. Six consecutive injections of alternating running buffer or peptide in running buffer, with an association phase of 120 seconds (s) followed by a dissociation phase of 60 s and a final dissociation phase of 600 s, were run for each β-clamp protein variant. The running buffer series were used as blanks together with the signal from the reference channels for double-reference subtraction. After each series of six injections, the sensor chip was washed with a 120 s regeneration injection of 1 M NaCl followed by a 120 s injection of running buffer. The sensorgrams were processed (reference subtracted) with Biacore S200 Evaluation Software Version 1.1 (GE Healthcare) and normalized according to the immobilized level.

[3] = system: mutant β-clamps (H148K, M362D, V151A, P363D, P242D, V247F); test: SPR analysis, immobilized mutant β-clamps; format: binding, Escherichia coli; details: Figure 2B
Protocol: as §4, §5

β-clamp [4] = details: peptide:β-clamp 100:5 μM (RWLVK, RALVK octamers) or 50:20 μM (Pol III peptide); 298 K, pH 7.4
Protocol: All NMR spectra were recorded in a standard 5 mm NMR tube at 298 K in 20 mM NaH2PO4, 100 mM NaCl, pH 7.4, 0.25 mM DSS, 10% D2O on a Bruker AVANCE III 800-MHz (^1H) spectrometer equipped with a room temperature probe. Free induction decays were transformed and analyzed in Topspin (Bruker Biospin) and the aromatic region assigned.

S.aureus (MRSA) 43484 = format: cell-based, Staphylococcus aureus
Protocol: as §1, §2

S.aureus FusA88799 = format: cell-based, Staphylococcus aureus; details: n = 3
Protocol: as §1, §2

S.epidermidis (MRSE) = format: cell-based, Staphylococcus epidermidis; details: 24 h
Protocol: as §1

E. coli BL21 [5] = format: cell-based, Escherichia coli; details: Mueller-Hinton Broth, 5 × 10^5 CFU/ml, 24 h, 37°C; average of ≥3 independent biological experiments
Protocol: as §1

E. coli MG1655 [6] = format: cell-based, Escherichia coli; details: Mueller-Hinton Broth, 5 × 10^5 CFU/ml, 24 h, 37°C; average of ≥3 independent biological experiments
Protocol: as §1

E.coli β-clamp = molecular target: T1, E.coli β-clamp (Escherichia coli, UniProt P0A988); test: Microscale thermophoresis (MST) β-clamp binding
T1 construct: made in house
Protocol: Purified E.coli β-clamp ([49]) was labeled using the RED-Maleimide Labelling Kit (NanoTemper Technologies, GmbH) according to the manufacturer's instructions applying a concentration of 20 μM protein at room temperature. The ligands, cell penetrating APIM-peptides, were dissolved and diluted in supplemented Microscale thermophoresis (MST) buffer (50 mM Tris–HCl pH 7.5, 150 mM NaCl, 10 mM MgCl2) with 2% fetal bovine serum and incubated for 10 min in room temperature. Series of 1:1 dilutions (16×), producing ligand concentrations ranging from 500 μM to 15 nM, were made. Each ligand solution was further diluted 1:1 with fluorescent labeled β-clamp (diluted in MST buffer, 3 nM) and incubated for 10 min. Fluorescence was measured for each protein-ligand sample using a Monolith NT.115 instrument (20% MST power and 100% LED power) and Monolith NT Standard Treated Capillaries (both NanoTemper Technologies, GmbH). To calculate the KD’s, fluorescence signals were plotted and analyzed using the supplemented software (NT Analysis software version 1.5.41 and MO.affinity analysis version 2.2.4, NanoTemper Technologies). Denaturation with SD-buffer (4% sodium dodecyl sulphate and 40 mM DTT) and re-measurement of total fluorescence confirmed that the observed change in fluorescence was due to ligand binding event.

E. coli MG1655 [7] = test: Rif^R mutagenicity assay, added cell penetrating peptides; format: cell-based, Escherichia coli; details: for Mutation frequency, added peptides: spontaneous, E. coli MG1655, cell penetrating peptide 20 μM, average ± SEM, RWLVK n = 11, RFSLK n = 4, RWLK n = 7, R11 n = 5, control 10.5 ± 2.2
Protocol: as §3

[8] = system: E. coli MG1655 WT and TLS deletion mutant cells; test: Rif^R mutagenicity assay in WT and TLS deletion strains; format: cell-based, Escherichia coli; details: peptide 20 μM
From the text: S. aureus: ATCC 29213, FDA486, methicillin-resistant S. aureus strain (MRSA) 43484 and FusA88779; S. epidermidis: clinical isolates (including one gentamicin sensitive strain and several multidrug-resistant strains) from Department of Microbiology, St. Olavs University Hospital, Trondheim, Norway, kindly provided by professor Kåre Bergh; Escherichia coli: strains DH5α, BL21 (RIPL) DE3 (Novagen), K12 (MG1655) wild type (WT) and TLS deletion strains (ΔPol II^3, ΔPol IV^1, ΔPol V^1, ΔPol II/IV^3, ΔPol II/V^3, ΔPol IV/V^2 and ΔPol II/IV/V^3). ^1 Keio collection, ^2 generated by Prof Magnar Bjørås’ group, UiO and ^3prepared as described ([43]). Briefly, polB was inactivated in E. coli MG1655 WT, ΔPol IV, ΔPol V and ΔPol IV/V using JW0059:: polB. A phage stock (T4GT7) diluted in T4 buffer was added to the JW0059::polB culture, incubated and plated on LB agar plates. The lysate was harvested and added to 2 ml T4 buffer and 0.2 ml CHCl3 (T4GT7 lysate). The mixture was centrifuged, and supernatant stored at 4°C over 20 μl CHCl3. 0.5 ml overnight culture of the recipient cells was re-suspended in 1 ml of T4 buffer and aliquoted. The T4GT7 lysate (10^−1, 10^−2, 10^−3 and 10^−4 dilutions) was added to the aliquots, incubated for 25 minutes (min) at room temperature and plated on LB-agar plates with kanamycin. Colonies obtained were re-streaked twice to obtain a pure culture. Kanamycin resistance cassettes replacing the deleted polB genes were removed by an FLP-recombinase expressed by pCP20 plasmid.
as §3

β-clamp [9] = details: read-out: KD for the β-clamp; cited from earlier work
From the text: Next, we examined the direct interaction between the β-clamp and octamer peptides containing RWLVK and RALVK (i.e. without the cell penetrating part of the peptide) by SPR.

[10] = molar form of the μg/ml MIC (RWLVK MW = 3674 Da, ciprofloxacin MW = 313 Da), n = 3
[11] = molar form of the μg/ml MIC, n = 3
[12] = Mueller-Hinton Broth, 5 × 10^5 CFU/ml, 37°C, average of ≥3 independent biological experiments

T1 sequence (P0A988 whole entry): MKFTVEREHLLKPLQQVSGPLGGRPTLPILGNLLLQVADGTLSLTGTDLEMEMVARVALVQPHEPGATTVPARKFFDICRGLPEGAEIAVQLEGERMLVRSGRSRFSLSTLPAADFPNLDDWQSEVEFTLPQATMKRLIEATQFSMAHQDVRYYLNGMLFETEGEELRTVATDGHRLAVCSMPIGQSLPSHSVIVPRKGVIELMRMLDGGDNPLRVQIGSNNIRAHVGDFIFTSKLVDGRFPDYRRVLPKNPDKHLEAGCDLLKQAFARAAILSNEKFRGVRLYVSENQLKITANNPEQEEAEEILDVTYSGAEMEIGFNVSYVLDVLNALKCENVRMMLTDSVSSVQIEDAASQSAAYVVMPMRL

O=C(O)c1cn(C2CC2)c2cc(N3CCNCC3)c(F)cc2c1=O [Ciprofloxacin, reference compound]
MIC (S.aureus ATCC 29213; Staphylococcus aureus, ATCC29213, Mueller-Hinton Broth, 5 × 10^5 CFU/ml, 24 h, 37°C, visible growth, same result in three biological replicates (n = 3), read-out: Minimal Inhibitory Concentration (MIC) S.aureus ATCC 29213): 0.5 µg/mL (≈ 1.51 µM)
Minimal Inhibitory Concentration (MIC) S.aureus ATCC 29213 (S.aureus ATCC 29213; [10]): 1.5 µM
MIC (S.aureus FDA486; Staphylococcus aureus, FDA486, Mueller-Hinton Broth, 5 × 10^5 CFU/ml, 24 h, 37°C, visible growth, n = 3, read-out: Minimal Inhibitory Concentration (MIC) S.aureus FDA486): 0.25 µg/mL (≈ 0.754 µM)
Minimal Inhibitory Concentration (MIC) S.aureus FDA486 (S.aureus FDA486; [11]): 0.8 µM

MD-RWLK- GILQSTLA [RWLK (overexpressed)]
Effect of peptide overexpression on bacterial growth (CFU/ml relative to uninduced culture; OD600) (E. coli BL21 [1]): did not inhibit bacterial growth
Effect of overexpression on the mutation frequency (E. coli BL21 [2]; E. coli BL21, spontaneous): did not affect the mutation frequency
Mutation frequency, overexpressed peptides (E. coli BL21 [2]; spontaneous, E. coli BL21, IPTG 1 mM, 2 h, average ± SEM, RWLVK n = 5, RFSLK n = 5, RWLK n = 6, control 2.5 ± 0.4): 3.8 ± 1.2 Rif^R/10^8 CFU

Ac-MDRWLVKW
Binding of octamer peptide to WT β-clamp (SPR) (WT β-clamp): bound stronger
Binding of peptide to all β-clamp variants (SPR) ([3]; H148K, M362D, V151A, P363D, P242D, V247F versus WT): reduced ability to bind
Reduced binding of peptide to β-clamp V247F (SPR) ([3]; β-clampV247F versus WT): ~50%
Binding to β-clamp by 1D 1H NMR (line broadening, chemical shift or intensity change) (β-clamp [4]): visual line broadening

MD-RALVK- GILQSTLA [RALVK (overexpressed)]
Effect of peptide overexpression on bacterial growth (CFU/ml relative to uninduced culture; OD600) (E. coli BL21 [1]): did not inhibit bacterial growth

Ac-MDAWLVKW
Binding to β-clamp by 1D 1H NMR (line broadening, chemical shift or intensity change) (β-clamp [4]): could not detect any binding

Ac-MDRWLVKWKKKRKIRRRRRRRRRRR-NH2 [RWLVK]
Minimal Inhibitory Concentration (MIC) S.aureus ATCC 29213 (S.aureus ATCC 29213; ATCC 29213, 24 h): 10 µg/mL
Minimal Inhibitory Concentration (MIC) S.aureus ATCC 29213 (S.aureus ATCC 29213; [10]): 3 µM
Minimal Inhibitory Concentration (MIC) S.aureus FDA486 (S.aureus FDA486; FDA486, 24 h): 10 µg/mL
Minimal Inhibitory Concentration (MIC) S.aureus FDA486 (S.aureus FDA486; [11]): 3 µM
Minimal Inhibitory Concentration (MIC) S.aureus (MRSA) 43484 (S.aureus (MRSA) 43484; 43484, 24 h): 10 µg/mL
Minimal Inhibitory Concentration (MIC) S.aureus (MRSA) 43484 (S.aureus (MRSA) 43484; [11]): 3 µM
Minimal Inhibitory Concentration (MIC) S.aureus FusA88799 (S.aureus FusA88799; Mueller-Hinton Broth, 5 × 10^5 CFU/ml, 24 h, 37°C, visible growth): 10 µg/mL
Minimal Inhibitory Concentration (MIC) S.aureus FusA88799 (S.aureus FusA88799; molar form of the μg/ml MIC): 3 µM
Minimal Inhibitory Concentration (MIC) S.epidermidis (MRSE) (S.epidermidis (MRSE)): 3 µM
Minimal Inhibitory Concentration (MIC) E. coli BL21 (E. coli BL21 [5]): 5 µM
Minimal Inhibitory Concentration (MIC) E. coli MG1655 (E. coli MG1655 [6]): 11 µM
Kd (E.coli β-clamp): < 50 µM
Effect on UV-induced mutation frequency (E. coli MG1655 [7]; E. coli MG1655, peptide 20 μM, 2 mJ UVC/cm^2, Figure 4A): reduced the mutation frequency
Mutation frequency, added peptides (E. coli MG1655 [7]): 5.9 ± 2.3 ** Rif^R/10^8 CFU
Effect on mutation frequency after UV-damage in all Pol V containing strains ([8]; UV 2 mJ/cm^2, Figure 4C): reduced the mutation frequency
Effect on mutation frequency after UV-irradiation in the ΔPol IV/V strain ([8]; UV 2 mJ/cm^2, Figure 4C): reduction in the mutation frequency
Effect on spontaneous mutation frequency in wild type (WT) ([8]; n = 8–10, Figure 4C): significantly reduced
Effect on mutation frequency in the TLS deficient ΔPol II/IV/V strain ([8]; under any conditions (spontaneous and UV)): No reduction of mutation frequency
Effect on spontaneous mutation frequency in the ΔPol II/V strain ([8]; Figure 4C): increased mutation frequency

Ac-MDRALVKWKKKRKIRRRRRRRRRRR-NH2 [RALVK]
Minimal Inhibitory Concentration (MIC) S.epidermidis (MRSE) (S.epidermidis (MRSE); [12]): 3 µM
Minimal Inhibitory Concentration (MIC) E. coli BL21 (E. coli BL21 [5]): 5 µM
Minimal Inhibitory Concentration (MIC) E. coli MG1655 (E. coli MG1655 [6]): 9 µM
Kd (E.coli β-clamp; cell penetrating peptides, MST buffer with 2% fetal bovine serum, initial in vitro binding experiments, bounds given, read-out: KD for the β-clamp (MST)): > 750 µM

Ac-EQVELEFD [Pol III peptide]
Kd (β-clamp [9]): ~2 µM

Ac-MDRWLKWKKKRKIRRRRRRRRRRR-NH2 [RWLK]
Minimal Inhibitory Concentration (MIC) S.epidermidis (MRSE) (S.epidermidis (MRSE); [12]): 4 µM
Minimal Inhibitory Concentration (MIC) E. coli BL21 (E. coli BL21 [5]): 6 µM
Minimal Inhibitory Concentration (MIC) E. coli MG1655 (E. coli MG1655 [6]): 12 µM
KD for the β-clamp (MST) (E.coli β-clamp; cell penetrating peptides, MST buffer with 2% fetal bovine serum, initial in vitro binding experiments, bounds given): no binding was detected
Mutation frequency, added peptides (E. coli MG1655 [7]): 7.7 ± 3.3 Rif^R/10^8 CFU
